The results in this text go back to BindingDB's records for doi:10.1021/np500581m (Institute of Microbial Chemistry (Bikaken), 2015).

This test can be described thus: Induction of p53-dependent growth suppression of human LNZTA3 cells after 72 hrs by MTT assay. Background: Formazan colour is commonly taken as a measure of viable cells.

Usually IC50 stands for the concentration that inhibits the measured activity by half. Low values mean inhibition by little substance, high ones a need for much substance. Compound `CCCCC[C@H](O[C@@H]1O[C@@H]([C@H](O)CO)[C@H](O)[C@H]1OC(C)=O)c1c(O)cc2c(c1O)C(=O)c1c(O)cc(O)cc1C2=O` came in with an IC50 of 6.2 µM.
`CCCCC[C@H](O[C@@H]1O[C@@H]([C@H](O)CO)[C@H](O)[C@H]1O)c1c(O)cc2c(c1O)C(=O)c1c(O)cc(O)cc1C2=O` came in with an IC50 of 6.2 µM. This counts as single-digit micromolar.
